Source: publication PMC11912224, “A general approach for activity-based protein profiling of oxidoreductases with redox-differentiated diarylhalonium warheads” (Chemical Science, 2025)

Experiments:
CHO (choline oxidase) = target: T1, CHO (choline oxidase) (Glutamicibacter nicotianae, UniProt A0ABQ0RMK5); assay: activity-based labelling, in-gel fluorescence; assay type: binding; conditions: covalent; 30 uM probe, 1 h
T1 construct: gene ANI01nite_22550; recombinant; FAD enzyme; details not in main text
T1 sequence (A0ABQ0RMK5 1-523): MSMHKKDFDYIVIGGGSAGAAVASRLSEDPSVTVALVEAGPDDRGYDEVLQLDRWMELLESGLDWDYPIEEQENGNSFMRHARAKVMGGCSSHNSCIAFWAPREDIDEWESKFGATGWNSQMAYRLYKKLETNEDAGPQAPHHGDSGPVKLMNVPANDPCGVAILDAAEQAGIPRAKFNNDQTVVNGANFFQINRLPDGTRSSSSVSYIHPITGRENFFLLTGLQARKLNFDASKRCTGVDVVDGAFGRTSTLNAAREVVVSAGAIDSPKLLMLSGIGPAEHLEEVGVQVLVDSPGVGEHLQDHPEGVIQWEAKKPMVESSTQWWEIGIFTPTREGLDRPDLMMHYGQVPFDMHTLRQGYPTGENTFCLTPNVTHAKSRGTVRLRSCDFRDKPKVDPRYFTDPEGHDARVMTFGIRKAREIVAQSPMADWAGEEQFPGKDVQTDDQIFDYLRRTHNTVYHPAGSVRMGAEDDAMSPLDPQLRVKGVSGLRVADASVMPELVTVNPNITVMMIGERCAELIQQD

EUOX (eugenol oxidase) = target: T2, EUOX (eugenol oxidase) (Rhodococcus jostii, UniProt Q0SBK1); assay: activity-based labelling, in-gel fluorescence; assay type: binding; conditions: covalent; 30 uM probe, 1 h
T2 construct: gene RHA1_ro03282; recombinant; FAD enzyme; details not in main text
T2 sequence (Q0SBK1 1-526): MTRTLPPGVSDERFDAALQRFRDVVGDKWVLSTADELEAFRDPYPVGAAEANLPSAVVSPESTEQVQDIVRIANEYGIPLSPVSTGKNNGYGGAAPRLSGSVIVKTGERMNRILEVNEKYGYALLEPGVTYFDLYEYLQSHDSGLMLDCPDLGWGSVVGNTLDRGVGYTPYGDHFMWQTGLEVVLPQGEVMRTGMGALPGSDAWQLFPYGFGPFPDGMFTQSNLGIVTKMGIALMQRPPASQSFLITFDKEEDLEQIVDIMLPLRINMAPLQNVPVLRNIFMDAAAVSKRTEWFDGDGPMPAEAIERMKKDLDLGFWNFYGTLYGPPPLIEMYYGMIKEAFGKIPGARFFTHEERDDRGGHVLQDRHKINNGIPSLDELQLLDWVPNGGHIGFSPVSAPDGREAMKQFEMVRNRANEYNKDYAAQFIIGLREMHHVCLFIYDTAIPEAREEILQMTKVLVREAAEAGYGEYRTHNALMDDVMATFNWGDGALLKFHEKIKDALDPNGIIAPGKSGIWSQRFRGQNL

CYP3A25 = target: T3, CYP3A25 (Mus musculus, UniProt O09158); assay: covalent labelling, streptavidin enrichment, LC-MS/MS; conditions: 30 uM probe, 1 h, mouse liver pieces
T3 construct: native, in intact mouse liver pieces
T3 sequence (O09158 1-503): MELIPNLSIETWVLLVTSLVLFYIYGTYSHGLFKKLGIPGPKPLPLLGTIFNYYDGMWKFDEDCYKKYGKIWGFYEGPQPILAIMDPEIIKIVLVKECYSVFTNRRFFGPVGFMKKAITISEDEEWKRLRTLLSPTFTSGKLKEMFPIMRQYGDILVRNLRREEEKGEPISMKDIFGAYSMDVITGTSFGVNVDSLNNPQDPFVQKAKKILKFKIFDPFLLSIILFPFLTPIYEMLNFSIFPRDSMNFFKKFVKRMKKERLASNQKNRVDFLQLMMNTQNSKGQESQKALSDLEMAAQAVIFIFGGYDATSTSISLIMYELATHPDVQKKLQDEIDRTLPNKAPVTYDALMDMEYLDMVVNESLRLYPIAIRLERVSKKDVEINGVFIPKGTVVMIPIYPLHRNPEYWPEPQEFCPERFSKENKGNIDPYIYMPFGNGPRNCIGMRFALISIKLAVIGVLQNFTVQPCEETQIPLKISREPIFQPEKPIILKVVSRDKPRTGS

[1] = target: T4, ALDH2 (aldehyde dehydrogenase 2, recombinant human) (Homo sapiens, UniProt P05091); assay: activity-based labelling, in-gel fluorescence; assay type: binding; conditions: covalent; 30 uM probe, 1 h
T4 construct: recombinant
T4 sequence (P05091 18-517): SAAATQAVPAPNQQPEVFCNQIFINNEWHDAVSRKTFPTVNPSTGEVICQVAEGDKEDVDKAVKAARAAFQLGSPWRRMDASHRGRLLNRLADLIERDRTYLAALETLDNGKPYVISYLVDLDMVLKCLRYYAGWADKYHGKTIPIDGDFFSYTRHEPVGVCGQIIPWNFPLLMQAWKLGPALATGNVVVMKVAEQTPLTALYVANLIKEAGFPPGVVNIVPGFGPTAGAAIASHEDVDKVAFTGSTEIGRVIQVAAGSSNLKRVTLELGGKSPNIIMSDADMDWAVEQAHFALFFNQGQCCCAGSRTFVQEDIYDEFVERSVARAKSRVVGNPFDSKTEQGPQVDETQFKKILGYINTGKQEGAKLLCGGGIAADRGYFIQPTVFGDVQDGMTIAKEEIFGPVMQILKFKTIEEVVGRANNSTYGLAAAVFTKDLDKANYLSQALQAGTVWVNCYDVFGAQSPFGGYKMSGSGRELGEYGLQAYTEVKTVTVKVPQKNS

heme oxygenase 2 (HMOX2) = target: T5, heme oxygenase 2 (HMOX2) (Mus musculus, UniProt O70252); assay: covalent labelling, streptavidin enrichment, LC-MS/MS; conditions: 30 uM probe, 1 h, mouse liver pieces
T5 construct: native, in intact mouse liver pieces
T5 sequence (O70252 2-315): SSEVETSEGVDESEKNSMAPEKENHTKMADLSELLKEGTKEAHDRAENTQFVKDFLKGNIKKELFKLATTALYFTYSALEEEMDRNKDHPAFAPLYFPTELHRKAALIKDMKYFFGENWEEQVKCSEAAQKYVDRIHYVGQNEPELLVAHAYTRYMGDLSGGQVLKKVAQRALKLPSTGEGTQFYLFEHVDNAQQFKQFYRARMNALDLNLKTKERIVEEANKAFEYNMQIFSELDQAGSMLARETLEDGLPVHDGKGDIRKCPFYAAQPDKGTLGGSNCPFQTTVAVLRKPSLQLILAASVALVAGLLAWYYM

[2] = target: T6, retinol dehydrogenase RDH7 (Mus musculus, UniProt O88451); assay: as above; conditions: 30 uM probe, 1 h, mouse liver pieces
T6 construct: native, in intact mouse liver pieces
T6 sequence (O88451 1-316): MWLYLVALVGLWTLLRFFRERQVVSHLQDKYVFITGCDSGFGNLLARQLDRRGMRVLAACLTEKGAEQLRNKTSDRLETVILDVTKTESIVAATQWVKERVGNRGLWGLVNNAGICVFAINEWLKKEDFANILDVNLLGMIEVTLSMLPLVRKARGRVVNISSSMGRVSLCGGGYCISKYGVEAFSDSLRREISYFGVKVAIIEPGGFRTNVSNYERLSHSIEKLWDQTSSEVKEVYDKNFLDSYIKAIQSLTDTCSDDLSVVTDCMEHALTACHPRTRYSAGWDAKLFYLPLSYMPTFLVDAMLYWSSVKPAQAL

## [N-]=[N+]=NCCCCCCCCCCNC(=O)c1ccc([I+]c2ccccc2)cc1 [3aa, diphenyliodonium probe 3aa]
CHO (choline oxidase)
  activity-based labelling, in-gel fluorescence: led to the labeling of several of the tested oxidoreductases
EUOX (eugenol oxidase)
  activity-based labelling, in-gel fluorescence: led to the labeling of several of the tested oxidoreductases
CYP3A25
  covalent labelling, streptavidin enrichment, LC-MS/MS: cytochrome P450 monooxygenases (CYP3A25, CYP27A1)
[1]
  activity-based labelling, in-gel fluorescence: led to the labeling of several of the tested oxidoreductases
Heme oxygenase 2 (HMOX2)
  covalent labelling, streptavidin enrichment, LC-MS/MS: HMOX2 was significantly enriched by diaryliodonium probes 3aa, 3ca, and 3da
[2]
  covalent labelling, streptavidin enrichment, LC-MS/MS: RDH7 and RDH16 were found to be labeled by probe 3aa very well
